From ChEMBL document CHEMBL1152457, “Antimicrobial drug resistance of Salmonella enterica serovar typhi in asia and molecular mechanism of reduced susceptibility to the fluoroquinolones” (2007)
≈ marks a conversion by molar mass, not a printed value.

Experiments:
Type in all cases: functional, Salmonella enterica subsp. enterica serovar Typhi
[1] = tested on: Salmonella enterica subsp. enterica; experiment: Antimicrobial activity against multidrug-resistant Salmonella enterica Serovar Typhi isolate nar 102 harboring DNA gyrase A S83F mutation by disk diffusion method in presence of plasmid mediated quinolone-resistant gene qnrA and qnrS
[2] = tested on: Salmonella enterica subsp. enterica; experiment: Antimicrobial activity against multidrug-resistant Salmonella enterica Serovar Typhi isolate ipt 33 harboring DNA gyrase A S83F mutation by disk diffusion method
[3] = tested on: Salmonella enterica subsp. enterica; experiment: Antimicrobial activity against multidrug-resistant Salmonella enterica Serovar Typhi isolate DT48 harboring DNA gyrase A S83F mutation by disk diffusion method
[4] = tested on: Salmonella enterica subsp. enterica; experiment: Antimicrobial activity against Salmonella enterica Serovar Typhi isolate AG3 harboring DNA gyrase A S83F mutation by disk diffusion method
[5] = tested on: Salmonella enterica subsp. enterica; experiment: Antimicrobial activity against multidrug-resistant Salmonella enterica Serovar Typhi isolate nar 50 harboring DNA gyrase A S83F mutation by disk diffusion method
[6] = tested on: Salmonella enterica subsp. enterica; experiment: Antimicrobial activity against multidrug-resistant Salmonella enterica Serovar Typhi isolate AG5 harboring DNA gyrase A S83F mutation by disk diffusion method
[7] = tested on: Salmonella enterica subsp. enterica; experiment: Antimicrobial activity against Salmonella enterica Serovar Typhi isolate CT144 harboring DNA gyrase A D87G mutation by disk diffusion method in presence of plasmid mediated quinolone-resistant gene qnrA and qnrS
[8] = tested on: Salmonella enterica subsp. enterica; experiment: Antimicrobial activity against multidrug-resistant Salmonella enterica Serovar Typhi isolate AG152 harboring DNA gyrase A S83F and D87G mutation by disk diffusion method in presence of plasmid mediated quinolone-resistant gene qnrA and qnrS
[9] = tested on: Salmonella enterica subsp. enterica; experiment: Antimicrobial activity against multidrug-resistant Salmonella enterica Serovar Typhi isolate nar 104 harboring DNA gyrase A S83F mutation by disk diffusion method in presence of plasmid mediated quinolone-resistant gene qnrA and qnrS
[10] = tested on: Salmonella enterica subsp. enterica; experiment: Antimicrobial activity against multidrug-resistant Salmonella enterica Serovar Typhi isolate AG7 harboring DNA gyrase A S83F mutation by disk diffusion method
[11] = tested on: Salmonella enterica subsp. enterica; experiment: Antimicrobial activity against multidrug-resistant Salmonella enterica Serovar Typhi isolate BL 3769 harboring DNA gyrase A S83F mutation by disk diffusion method in presence of plasmid mediated quinolone-resistant gene qnrA and qnrS
[12] = tested on: Salmonella enterica subsp. enterica; experiment: Antimicrobial activity against Salmonella enterica Serovar Typhi isolate AG169 harboring DNA gyrase A S83F mutation by disk diffusion method
[13] = tested on: Salmonella enterica subsp. enterica; experiment: Antimicrobial activity against multidrug-resistant Salmonella enterica Serovar Typhi isolate nar 107 harboring DNA gyrase A S83F mutation by disk diffusion method in presence of plasmid mediated quinolone-resistant gene qnrA and qnrS
[14] = tested on: Salmonella enterica subsp. enterica; experiment: Antimicrobial activity against multidrug-resistant Salmonella enterica Serovar Typhi isolate A102 harboring DNA gyrase A S83Y mutation by disk diffusion method in presence of plasmid mediated quinolone-resistant gene qnrA and qnrS
[15] = tested on: Salmonella enterica subsp. enterica; experiment: Antimicrobial activity against Salmonella enterica Serovar Typhi isolate D43 harboring DNA gyrase A S83Y mutation by disk diffusion method in presence of plasmid mediated quinolone-resistant gene qnrA and qnrS
[16] = tested on: Salmonella enterica subsp. enterica; experiment: Antimicrobial activity against multidrug-resistant Salmonella enterica Serovar Typhi isolate DT42 harboring DNA gyrase A S83F mutation by disk diffusion method
[17] = tested on: Salmonella enterica subsp. enterica; experiment: Antimicrobial activity against multidrug-resistant Salmonella enterica Serovar Typhi isolate DT3 harboring DNA gyrase A S83F mutation by disk diffusion method in presence of plasmid mediated quinolone-resistant gene qnrA and qnrS
[18] = tested on: Salmonella enterica subsp. enterica; experiment: Antimicrobial activity against multidrug-resistant Salmonella enterica Serovar Typhi isolate DT37 harboring DNA gyrase A S83F mutation by disk diffusion method
[19] = tested on: Salmonella enterica subsp. enterica; experiment: Antimicrobial activity against multidrug-resistant Salmonella enterica Serovar Typhi isolate CT118 harboring DNA gyrase A S83F mutation by disk diffusion method in presence of plasmid mediated quinolone-resistant gene qnrA and qnrS
[20] = tested on: Salmonella enterica subsp. enterica; experiment: Antimicrobial activity against multidrug-resistant Salmonella enterica Serovar Typhi isolate AG16 harboring DNA gyrase A S83F mutation by disk diffusion method
[21] = tested on: Salmonella enterica subsp. enterica; experiment: Antimicrobial activity against multidrug-resistant Salmonella enterica Serovar Typhi isolate DT60 harboring DNA gyrase A S83F mutation by disk diffusion method
[22] = tested on: Salmonella enterica subsp. enterica; experiment: Antimicrobial activity against multidrug-resistant Salmonella enterica Serovar Typhi isolate DT40 harboring DNA gyrase A S83F mutation by disk diffusion method
[23] = tested on: Salmonella enterica subsp. enterica; experiment: Antimicrobial activity against Salmonella enterica Serovar Typhi isolate AG182 harboring DNA gyrase A S83F mutation by disk diffusion method
[24] = tested on: Salmonella enterica subsp. enterica; experiment: Antimicrobial activity against Salmonella enterica Serovar Typhi isolate AG258 harboring DNA gyrase A S83F mutation by disk diffusion method in presence of plasmid mediated quinolone-resistant gene qnrA and qnrS
[25] = tested on: Salmonella enterica subsp. enterica; experiment: Antimicrobial activity against multidrug-resistant Salmonella enterica Serovar Typhi isolate nar 46 harboring DNA gyrase A D87G mutation by disk diffusion method
[26] = tested on: Salmonella enterica subsp. enterica; experiment: Antimicrobial activity against Salmonella enterica Serovar Typhi isolate ipt 2 harboring DNA gyrase A D87G mutation by disk diffusion method in presence of plasmid mediated quinolone-resistant gene qnrA and qnrS
[27] = tested on: Salmonella enterica subsp. enterica; experiment: Antimicrobial activity against multidrug-resistant Salmonella enterica Serovar Typhi isolate nar 45 harboring DNA gyrase A S83F mutation by disk diffusion method
[28] = tested on: Salmonella enterica subsp. enterica; experiment: Antimicrobial activity against multidrug-resistant Salmonella enterica Serovar Typhi isolate DT15 harboring DNA gyrase A S83F mutation by disk diffusion method
[29] = tested on: Salmonella enterica subsp. enterica; experiment: Antimicrobial activity against multidrug-resistant Salmonella enterica Serovar Typhi isolate AG6 harboring DNA gyrase A S83F mutation by disk diffusion method
[30] = tested on: Salmonella enterica subsp. enterica; experiment: Antimicrobial activity against multidrug-resistant Salmonella enterica Serovar Typhi isolate DT18 harboring DNA gyrase A S83F and D87G mutation by disk diffusion method
[31] = tested on: Salmonella enterica subsp. enterica; experiment: Antimicrobial activity against multidrug-resistant Salmonella enterica Serovar Typhi isolate DT47 harboring DNA gyrase A S83F mutation by disk diffusion method in presence of plasmid mediated quinolone-resistant gene qnrA and qnrS
[32] = tested on: Salmonella enterica subsp. enterica; experiment: Antimicrobial activity against Salmonella enterica Serovar Typhi isolate E86 harboring DNA gyrase A S83F mutation by disk diffusion method in presence of plasmid mediated quinolone-resistant gene qnrA and qnrS
[33] = tested on: Salmonella enterica subsp. enterica; experiment: Antimicrobial activity against multidrug-resistant Salmonella enterica Serovar Typhi isolate CT61 harboring DNA gyrase A S83F mutation by disk diffusion method in presence of plasmid mediated quinolone-resistant gene qnrA and qnrS
[34] = tested on: Salmonella enterica subsp. enterica; experiment: Antimicrobial activity against multidrug-resistant Salmonella enterica Serovar Typhi isolate DT9 harboring DNA gyrase A S83F mutation by disk diffusion method
[35] = tested on: Salmonella enterica subsp. enterica; experiment: Antimicrobial activity against multidrug-resistant Salmonella enterica Serovar Typhi isolate AG17 harboring DNA gyrase A S83F mutation by disk diffusion method
[36] = tested on: Salmonella enterica subsp. enterica; experiment: Antimicrobial activity against multidrug-resistant Salmonella enterica Serovar Typhi isolate DT2 harboring DNA gyrase A S83F mutation by disk diffusion method in presence of plasmid mediated quinolone-resistant gene qnrA and qnrS
[37] = tested on: Salmonella enterica subsp. enterica; experiment: Antimicrobial activity against Salmonella enterica Serovar Typhi isolate C152 harboring DNA gyrase A S83Y mutation by disk diffusion method in presence of plasmid mediated quinolone-resistant gene qnrA and qnrS
[38] = tested on: Salmonella enterica subsp. enterica; experiment: Antimicrobial activity against multidrug-resistant Salmonella enterica Serovar Typhi isolate HTD 798 harboring DNA gyrase A S83F mutation by disk diffusion method
[39] = tested on: Salmonella enterica subsp. enterica; experiment: Antimicrobial activity against Salmonella enterica Serovar Typhi isolate nar 108 harboring DNA gyrase A S83F mutation by disk diffusion method in presence of plasmid mediated quinolone-resistant gene qnrA and qnrS
[40] = tested on: Salmonella enterica subsp. enterica; experiment: Antimicrobial activity against multidrug-resistant Salmonella enterica Serovar Typhi isolate nar 28 harboring DNA gyrase A S83F mutation by disk diffusion method

Structure (SMILES) | MIC [1] | MIC [2] | MIC [3] | MIC [5] | MIC [6] | MIC [7] | MIC [8] | MIC [9] | MIC [10] | MIC [11] | MIC [12] | MIC [13] | MIC [14] | MIC [15] | MIC [16] | MIC [17] | MIC [18] | MIC [19] | MIC [20] | MIC [21] | other results
COc1c(N2CCNC(C)C2)c(F)cc2c(=O)c(C(=O)O)cn(C3CC3)c12 (centres undefined) [GATIFLOXACIN] | 0.094 µg/mL | 0.125 µg/mL (≈ 0.333 µM) | 0.125 µg/mL (≈ 0.333 µM) | 0.094 µg/mL (≈ 0.25 µM) | 0.25 µg/mL (≈ 0.666 µM) | 0.094 µg/mL | 0.25 µg/mL | 0.125 µg/mL | 0.19 µg/mL (≈ 0.506 µM) | 0.19 µg/mL | 0.13 µg/mL (≈ 0.346 µM) | 0.125 µg/mL | 0.19 µg/mL | 0.19 µg/mL | 0.125 µg/mL (≈ 0.333 µM) | 0.094 µg/mL | 0.125 µg/mL (≈ 0.333 µM) | 0.094 µg/mL | 0.13 µg/mL (≈ 0.346 µM) | 0.125 µg/mL (≈ 0.333 µM) | MIC [4]: 0.25 µg/mL (≈ 0.666 µM); MIC [22]: 0.125 µg/mL (≈ 0.333 µM); MIC [23]: 0.13 µg/mL (≈ 0.346 µM); MIC [24]: 0.19 µg/mL; MIC [25]: 0.032 µg/mL (≈ 0.0852 µM); MIC [26]: 0.125 µg/mL; MIC [27]: 0.125 µg/mL (≈ 0.333 µM); MIC [28]: 0.094 µg/mL (≈ 0.25 µM); MIC [29]: 0.19 µg/mL (≈ 0.506 µM); MIC [30]: 0.25 µg/mL (≈ 0.666 µM); MIC [31]: 0.125 µg/mL; MIC [32]: 0.19 µg/mL; MIC [33]: 0.064 µg/mL; MIC [34]: 0.25 µg/mL (≈ 0.666 µM); MIC [35]: 0.19 µg/mL (≈ 0.506 µM); MIC [36]: 0.125 µg/mL; MIC [37]: 0.19 µg/mL; MIC [38]: 0.13 µg/mL (≈ 0.346 µM); MIC [39]: 0.125 µg/mL; MIC [40]: 0.19 µg/mL (≈ 0.506 µM)
O=C(O)c1cn(C2CC2)c2cc(N3CCNCC3)c(F)cc2c1=O [CIPROFLOXACIN] | 0.125 µg/mL | 0.5 µg/mL (≈ 1.51 µM) | 0.5 µg/mL (≈ 1.51 µM) | 0.5 µg/mL (≈ 1.51 µM) | 0.5 µg/mL (≈ 1.51 µM) | 0.25 µg/mL | 0.38 µg/mL | 0.25 µg/mL | 0.5 µg/mL (≈ 1.51 µM) | 0.25 µg/mL | 0.38 µg/mL (≈ 1.15 µM) | 0.25 µg/mL | 0.25 µg/mL | 0.25 µg/mL | 0.5 µg/mL (≈ 1.51 µM) | 0.5 µg/mL | 0.5 µg/mL (≈ 1.51 µM) | 0.38 µg/mL | 0.38 µg/mL (≈ 1.15 µM) | 0.25 µg/mL (≈ 0.754 µM) | MIC [22]: 0.38 µg/mL (≈ 1.15 µM); MIC [23]: 0.38 µg/mL (≈ 1.15 µM); MIC [24]: 0.5 µg/mL; MIC [25]: 0.06 µg/mL (≈ 0.181 µM); MIC [26]: 0.25 µg/mL; MIC [27]: 0.5 µg/mL (≈ 1.51 µM); MIC [28]: 0.5 µg/mL (≈ 1.51 µM); MIC [29]: 0.5 µg/mL (≈ 1.51 µM); MIC [30]: 0.5 µg/mL (≈ 1.51 µM); MIC [31]: 0.5 µg/mL; MIC [32]: 0.25 µg/mL; MIC [33]: 0.125 µg/mL; MIC [34]: 0.5 µg/mL (≈ 1.51 µM); MIC [35]: 0.5 µg/mL (≈ 1.51 µM); MIC [36]: 0.5 µg/mL; MIC [37]: 0.25 µg/mL; MIC [38]: 0.38 µg/mL (≈ 1.15 µM); MIC [39]: 0.25 µg/mL; MIC [40]: 0.5 µg/mL (≈ 1.51 µM)
